For 38 compounds, cytotoxicity results are on record in ChEMBL document CHEMBL3507680, “University of Dundee, Gates Library screen for HepG2 cell viability”.

This data set can be described thus: Human HepG2 cell viability assay in 384 well format. In kind it is toxicity, cell-based. Conditions: HepG2 cells, read-out: Inhibition. Also noted: dose 125 nL, time 70.5 hour; concentration not given beside the values.

Take `CC(=O)N[C@@H]1C[C@H](Cc2ccccc2)O[C@H](c2ccc(C(=O)O)cc2)C1`: the cytotoxicity at 70.5 h was -6.19%.

On to `O=C(N[C@@H]1CCNC[C@H]1O)c1ccc(F)c(F)c1`, for which the cytotoxicity at 70.5 h is -5.14%. With `CCc1ccc2nc(C)cc(C(=O)NCc3csc(N(C)C)n3)c2c1`, the cytotoxicity at 70.5 h came out at 16.3%. With `C=C(C)COc1ccccc1CNCCc1cc(O)nc(C)n1`, the cytotoxicity at 70.5 h was -2.32%. As for `Cc1nc(CC(=O)N2CCCC(N(C)Cc3ccccc3)C2)cs1` (stereo not drawn), the cytotoxicity at 70.5 h came out at 1.48%. As to `COc1ccc(Oc2ncccc2C(N)=O)cc1CN1CCCC1`, the cytotoxicity at 70.5 h is -7.33%. In the case of `CC[C@@]1(O)CCN(c2ncc(Cl)cc2C(F)(F)F)C[C@H]1O`, the cytotoxicity at 70.5 h is 20.8%. For `O=C1O[C@@H]2CN(C3CCOCC3)C[C@@H]2N1CCc1cccc(Cl)c1`, the cytotoxicity at 70.5 h is -1.7%.

Regarding `CCCN1CCC(CC(=O)NCc2cc(C)nn2C)CC1`, the cytotoxicity at 70.5 h was -7.34%. The same measure for `CC1(C)CNC(=O)c2nc(C3CCCN(S(C)(=O)=O)C3)[nH]c2C1` (stereo not drawn): -6.33%; for `COCCC1(C(=O)O)CCCN(c2cc(C)c3ccccc3n2)C1` (stereo not drawn): -8.76%; for `Cc1ccccc1[C@@H]1CN(Cc2c(C)noc2C)C[C@H]1C(=O)O`: 21.7%.

Take `COCCN(C)C[C@H]1C[C@H](CO)CN(C(=O)c2ccn(C)c(=O)c2)C1`: the cytotoxicity at 70.5 h was -9.68%. On to `CCCc1cc(C(=O)N(C)Cc2cccc3cnccc23)n(C)n1`, for which the cytotoxicity at 70.5 h is -2.24%.

On to `Cc1nc(CN)cc(N2CCC(O)(c3ccc(Cl)cc3)CC2)n1`, for which the cytotoxicity at 70.5 h is -1.91%. Take `Cc1noc(C)c1CN1C[C@@H](NC(=O)N(C)C)[C@H](C(C)C)C1`: the cytotoxicity at 70.5 h was -6.75%. For the compound `COC(=O)[C@@H]1CCCN1C(=O)c1cn(CCCc2ccccc2)nn1`, the cytotoxicity at 70.5 h is -19.4%. With `COc1cccc(CN2CCN(C(=O)Nc3nc(C)ns3)CC2=O)c1`, the cytotoxicity at 70.5 h was -0.713%. In the case of `Cc1nc(N(C)Cc2cccc(O)c2)nc2cc(S(C)(=O)=O)ccc12`, the cytotoxicity at 70.5 h was -7.8%. Regarding `CC(C)c1cc(CN(C)C(=O)C(C)N2CCc3ccccc3C2)no1` (stereo not drawn), the cytotoxicity at 70.5 h worked out at 34.4%. The same measure for `CC(C)C1CN(c2nccc(N)n2)CCC(=O)N1Cc1ccc(F)cc1` (stereo not drawn): -8.72%; for `Oc1cc(CN2CCCCC2c2cccnc2)nc2c(F)cccc12` (stereo not drawn): -2.95%.

In the case of `CC(C)(C)c1ccc(OCc2nc3c(c(=O)[nH]2)CCNC3)cc1`, the cytotoxicity at 70.5 h is -7.79%.

`CCC(CO)NC(=O)c1cc(COc2ccc(OC)cc2Cl)[nH]n1` (stereo not drawn): the cytotoxicity at 70.5 h was -10.5%. `COc1ccc(OC)c2c(C)cc(N(C)CCO)nc12`: the cytotoxicity at 70.5 h was found to be 16.9%.

Regarding `CCC(C)N(Cc1cnc(OC)nc1)Cc1ccsc1` (stereo not drawn), the cytotoxicity at 70.5 h is -3.9%. `Clc1cc(N2CCC(N3CCCC3)CC2)nc2[nH]ccc12`: the cytotoxicity at 70.5 h was -2.57%. Take `CC(C)C1=NOC(c2nc(-c3cccc(Cl)c3)no2)C1` (stereo not drawn): the cytotoxicity at 70.5 h came out at 8.08%. As to `COc1cccc(C(=O)N2CCc3c(nc(N)[nH]c3=O)C2)c1C`, the cytotoxicity at 70.5 h was determined as 1.02%. For `Cn1cc(Cl)c(C(=O)N2CCC(N3CCc4ccccc4C3)CC2)n1`, the cytotoxicity at 70.5 h was -6.46%. As to `CCN1CCCC(C)(C(=O)NCc2nncn2CCc2ccccc2)C1` (stereo not drawn), the cytotoxicity at 70.5 h is -8.53%. With `NC1(C(=O)N2CCC(c3cc(-c4ccccc4Cl)n[nH]3)CC2)CCC1`, the cytotoxicity at 70.5 h is 46.9%.

As to `COc1ccc2cc(C3CN(C(=O)CCNC(C)=O)CCO3)ccc2c1` (stereo not drawn), the cytotoxicity at 70.5 h is 2.84%.

As for `COc1cccc2c1OCC(C(=O)N(Cc1ccncc1)CC(C)C)C2` (stereo not drawn), the cytotoxicity at 70.5 h is 15.1%. Regarding `c1ccc(CN2CCCC(CNc3ncnc4c3CCNCC4)C2)cc1` (stereo not drawn), the cytotoxicity at 70.5 h is -6.09%. In the case of `CCCc1nc(N(C)CCc2noc(C(C)C)n2)c2cnn(C)c2n1`, the cytotoxicity at 70.5 h amounted to 5.48%. In the case of `CC(C)C(=O)N1CCC(CNc2nc(C(C)C)nc3c2cnn3C)CC1`, the cytotoxicity at 70.5 h is -9.27%. Turning to `COc1ccnc(CN(C)C(=O)CSc2nnc(N)s2)c1`, the cytotoxicity at 70.5 h is -5.2%.
